The target of assay [1] is T1, SARS-CoV-2 PLpro (nsp3 1564–1878) (Severe acute respiratory syndrome coronavirus 2, UniProt P0DTD1). The experiment in a line: biochemical. The arrangement: FRET-quenched peptide (Pro3) cleavage by PLpro, 10 min pre-incubation, slope over 20 min, normalised to no-compound control. Particulars: low concentration screen, read-out: % of control remaining.
Assay [2] deals with T1, SARS-CoV-2 PLpro (nsp3 1564–1878). The assay can be described thus: biochemical. Details: FRET-quenched peptide (Pro3) cleavage by PLpro, 10 min pre-incubation, slope over 20 min, normalised to no-compound control. Particulars: high concentration screen, read-out: % of control remaining.

Counter-ions that a name gives are not always drawn. Like-named read-outs stand apart in the source and are kept apart here.

`Cc1c(F)cccc1NC(=O)Nc1ccc(Cl)c(S(=O)(=O)[C@H]2CCCNC2)c1O` [Danirixin]: the remaining activity at 1.25 µM in assay [1] (Well no.=8173) came to 111%. The remaining activity at 3.75 µM in assay [2] (Well no.=8173) is 103%.
Consider `CN1C[C@@H]2C[C@H]1CN2c1cc2c(cc1F)c(=O)c(C(=O)O)cn2C1CC1` [Danofloxacin Mesylate], for which the remaining activity at 1.25 µM in assay [1] (Well no.=5322) came out at 87.6%. Further, the remaining activity at 3.75 µM in assay [2] (Well no.=5322) is 86.3%.
As to `O=C1CN(/N=C/c2ccc(-c3ccc([N+](=O)[O-])cc3)o2)C(=O)N1` [Dantrolene sodium salt], in assay [1] (Well no.=5847), the remaining activity at 1.25 µM turned out to be 104%. Besides, the remaining activity at 3.75 µM in assay [2] (Well no.=5847) amounted to 101%.
Consider `O=C1CN(/N=C/c2ccc(-c3ccc([N+](=O)[O-])cc3)o2)C(=O)N1` [Dantrolene sodium], for which, in assay [1] (Well no.=490), the remaining activity at 1.25 µM came to 103%. Also, in assay [2] (Well no.=490), the remaining activity at 3.75 µM was found to be 103%.
For `CO[C@@H](C(=O)N1Cc2[nH]nc(NC(=O)c3ccc(N4CCN(C)CC4)cc3)c2C1)c1ccccc1` [Danusertib (PHA-739358)], in assay [1] (Well no.=5045), the remaining activity at 1.25 µM amounted to 103%. Also, the remaining activity at 3.75 µM in assay [2] (Well no.=5045) stood at 106%.
Turning to `CCOc1ccc(Cc2cc([C@@H]3O[C@H](CO)[C@@H](O)[C@H](O)[C@H]3O)ccc2Cl)cc1` [Dapagliflozin], in assay [1] (Well no.=5291), the remaining activity at 1.25 µM came out at 93.4%. Also, the remaining activity at 3.75 µM in assay [2] (Well no.=5291) was 95.8%.
In the case of `O=c1ccc2ccc(O)c(O)c2o1` [Daphnetin], in assay [1] (Well no.=405), the remaining activity at 1.25 µM is 102%. Also, the remaining activity at 3.75 µM in assay [2] (Well no.=405) is 101%.
On to `Cc1ccccc1N1CCN(CCc2nnc3n2CCCC3)CC1` [Dapiprazole (hydrochloride)], for which the remaining activity at 1.25 µM in assay [1] (Well no.=6895) came to 97.8%. For the same molecule, the remaining activity at 3.75 µM in assay [2] (Well no.=6895) came to 100%.
Regarding `Cc1cc(C)c(Nc2ccnc(Nc3ccc(C#N)cc3)n2)c(C)c1` [Dapivirine], the remaining activity at 1.25 µM in assay [1] (Well no.=5223) is 97.4%. In addition, the remaining activity at 3.75 µM in assay [2] (Well no.=5223) was 98.3%.
With `CN(C)[C@@H](CCOc1cccc2ccccc12)c1ccccc1` [Dapoxetine hydrochloride], the remaining activity at 1.25 µM in assay [1] (Well no.=5853) was 94.2%. For the same molecule, the remaining activity at 3.75 µM in assay [2] (Well no.=5853) worked out at 91%.
As for `O=C(O)CNC(=O)C1C(=O)N(C2CCCCC2)C(=O)N(C2CCCCC2)C1=O` [Daprodustat (GSK1278863)], in assay [1] (Well no.=8534), the remaining activity at 1.25 µM worked out at 96.6%. Besides, the remaining activity at 3.75 µM in assay [2] (Well no.=8534) came out at 99.9%.
For the molecule `CCCCCCCCCC(=O)N[C@@H](Cc1c[nH]c2ccccc12)C(=O)N[C@H](CC(N)=O)C(=O)N[C@@H](CC(=O)O)C(=O)N[C@@H]1C(=O)NCC(=O)N[C@@H](CCCN)C(=O)N[C@@H](CC(=O)O)C(=O)N[C@H](C)C(=O)N[C@@H](CC(=O)O)C(=O)NCC(=O)N[C@H](CO)C(=O)N[C@@H]([C@H](C)CC(=O)O)C(=O)N[C@@H](CC(=O)c2ccccc2N)C(=O)O[C@@H]1C` [Daptomycin], the figures for the remaining activity at 1.25 µM in assay [1] (Well no.=5201) and in assay [1] (Well no.=7796) were 98.3% and 104%, respectively. The remaining activity at 3.75 µM in assay [2] (Well no.=5201) came out at 100%; in assay [2] (Well no.=7796), 105%.
`CCN(CC)CCN(Cc1ccc(-c2ccc(C(F)(F)F)cc2)cc1)C(=O)Cn1c(SCc2ccc(F)cc2)nc(=O)c2c1CCC2` [Darapladib (SB-480848)]: the remaining activity at 1.25 µM in assay [1] (Well no.=8576) was found to be 101%. Besides, in assay [2] (Well no.=8576), the remaining activity at 3.75 µM came out at 98.6%.
As for `Cc1oc(-c2ccccc2)nc1CCC(=O)c1ccc(CC2SC(=O)NC2=O)cc1` (stereo not shown) [Darglitazone sodium salt], the remaining activity at 1.25 µM in assay [1] (Well no.=5504) was 90.6%. In addition, the remaining activity at 3.75 µM in assay [2] (Well no.=5504) worked out at 98%.
For the molecule `NC(=O)C(c1ccccc1)(c1ccccc1)[C@@H]1CCN(CCc2ccc3c(c2)CCO3)C1` [Darifenacin (hydrobromide)], the remaining activity at 1.25 µM in assay [1] (Well no.=7341) worked out at 95.3%. In addition, the remaining activity at 3.75 µM in assay [2] (Well no.=7341) came out at 89.4%.
On to `NC(=O)C(c1ccccc1)(c1ccccc1)[C@@H]1CCN(CCc2ccc3c(c2)CCO3)C1` [Darifenacin HBr], for which, in assay [1] (Well no.=5361), the remaining activity at 1.25 µM is 104%. Moreover, in assay [2] (Well no.=5361), the remaining activity at 3.75 µM turned out to be 97.1%.
As for `CC(C)CN(C[C@@H](O)[C@H](Cc1ccccc1)NC(=O)O[C@H]1CO[C@H]2OCC[C@H]21)S(=O)(=O)c1ccc(N)cc1` [Darunavir (Ethanolate)], the remaining activity at 1.25 µM in assay [1] (Well no.=8504) worked out at 98.9%. Moreover, in assay [2] (Well no.=8504), the remaining activity at 3.75 µM stood at 90.4%.
On to `CC(C)CN(C[C@@H](O)[C@H](Cc1ccccc1)NC(=O)O[C@H]1CO[C@H]2OCC[C@H]21)S(=O)(=O)c1ccc(N)cc1` [Darunavir Ethanolate], for which the remaining activity at 1.25 µM in assay [1] (Well no.=8284) worked out at 90.9%. The remaining activity at 3.75 µM in assay [2] (Well no.=8284) worked out at 94.1%.
With `CC(C)CN(C[C@@H](O)[C@H](Cc1ccccc1)NC(=O)O[C@H]1CO[C@H]2OCC[C@H]21)S(=O)(=O)c1ccc(N)cc1` [Darunavir], in assay [1] (Well no.=7318), the remaining activity at 1.25 µM was determined as 108%. Besides, the remaining activity at 3.75 µM in assay [2] (Well no.=7318) is 108%.
As to `Cc1nc(Nc2ncc(C(=O)Nc3c(C)cccc3Cl)s2)cc(N2CCN(CCO)CC2)n1` [Dasatinib], the remaining activity at 1.25 µM in assay [1] (Well no.=2933) turned out to be 101%. Also, the remaining activity at 3.75 µM in assay [2] (Well no.=2933) is 97.3%.
In the case of `O=c1c(O)c(-c2ccccc2O)oc2cc(O)cc(O)c12` [Datiscetin], the remaining activity at 1.25 µM in assay [1] (Well no.=3251) worked out at 95.3%. For the same molecule, the remaining activity at 3.75 µM in assay [2] (Well no.=3251) amounted to 96.6%.
On to `COc1cccc2c1C(=O)c1c(O)c3c(c(O)c1C2=O)C[C@@](O)(C(C)=O)C[C@@H]3O[C@H]1C[C@H](N)[C@H](O)[C@H](C)O1` [Daunorubicin hydrochloride], for which the remaining activity at 1.25 µM in assay [1] (Well no.=728) worked out at 94%. In addition, in assay [2] (Well no.=728), the remaining activity at 3.75 µM amounted to 94.8%.
On to `COc1cccc2c1C(=O)c1c(O)c3c(c(O)c1C2=O)C[C@@](O)(C(C)=O)C[C@@H]3O[C@H]1C[C@H](N)[C@H](O)[C@H](C)O1` [Daunorubicin], for which the remaining activity at 1.25 µM in assay [1] (Well no.=1708) came out at 96.8%; in assay [1] (Well no.=3221), 103%. Moreover, the remaining activity at 3.75 µM in assay [2] (Well no.=1708) came to 97.4%; in assay [2] (Well no.=3221) it was 104%.
Consider `N=C(N)N1CCc2ccccc2C1` [Debrisoquin sulfate], for which the remaining activity at 1.25 µM in assay [1] (Well no.=397) was found to be 103%. Further, the remaining activity at 3.75 µM in assay [2] (Well no.=397) stood at 104%.
Turning to `N=C(N)N1CCc2ccccc2C1` [Debrisoquin], the remaining activity at 1.25 µM in assay [1] (Well no.=1905) came out at 99.9%. The remaining activity at 3.75 µM in assay [2] (Well no.=1905) was 99.9%.
For the molecule `C[N+](C)(C)CCCCCCCCCC[N+](C)(C)C` [Decamethonium dibromide], the remaining activity at 1.25 µM in assay [1] (Well no.=683) worked out at 94%. Further, the remaining activity at 3.75 µM in assay [2] (Well no.=683) was 95.4%.
`C[N+](C)(C)CCCCCCCCCC[N+](C)(C)C` [Decamethonium]: the remaining activity at 1.25 µM in assay [1] (Well no.=1554) came out at 97.2%. Also, the remaining activity at 3.75 µM in assay [2] (Well no.=1554) was found to be 100%.
For `O=C(O)CCCCCCCCC(=O)O` [Decanedioic acid], in assay [1] (Well no.=6453), the remaining activity at 1.25 µM was 93%. In assay [2] (Well no.=6453), the remaining activity at 3.75 µM was 95.8%.
Consider `CCCCCCCCCC(=O)O` [Decanoic acid], for which the remaining activity at 1.25 µM in assay [1] (Well no.=4540) is 93.6%; in assay [1] (Well no.=6973), 105%. Also, the remaining activity at 3.75 µM turned out to be 95.8% in assay [2] (Well no.=4540) and 107% in assay [2] (Well no.=6973).

For the origin of these results see PMC8286840, “Identifying SARS-CoV-2 antiviral compounds by screening for small molecule inhibitors of Nsp3 papain-like protease” (Biochemical Journal, 2021).
